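Five compound concentrations were applied to cells in 96-well plates for 48 hours; endpoints were derived by simple linear interpolation of the resulting dose-response curve. GI50 is the concentration that inhibits growth by half. Definition used: TGI = concentration required for complete inhibition of growth.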
Tests used:
Experiment in all cases: inhibition of tumour cell growth, NCI panel, 48 h
786-0 renal = test system: 786-0 renal
A498 renal = test system: A498 renal
A549 NSCLC = test system: A549 NSCLC
ACHN renal = test system: ACHN renal
BT-549 breast = test system: BT-549 breast
CAKI-1 renal = test system: CAKI-1 renal
CCRF-CEM leukemia = test system: CCRF-CEM leukemia
COLO 205 colon = test system: COLO 205 colon
DU-145 prostate = test system: DU-145 prostate
HCC-2998 colon = test system: HCC-2998 colon
HCT-116 colon = test system: HCT-116 colon
HCT-15 colon = test system: HCT-15 colon
HL-60(TB) leukemia = test system: HL-60(TB) leukemia
HOP-62 NSCLC = test system: HOP-62 NSCLC
HOP-92 NSCLC = test system: HOP-92 NSCLC
HS 578T breast = test system: HS 578T breast
HT29 colon = test system: HT29 colon
IGROV1 ovarian = test system: IGROV1 ovarian
K-562 leukemia = test system: K-562 leukemia
KM12 colon = test system: KM12 colon
LOX IMVI melanoma = test system: LOX IMVI melanoma
M14 melanoma = test system: M14 melanoma
MALME-3M melanoma = test system: MALME-3M melanoma
MCF7 breast = test system: MCF7 breast
MDA-MB-231 breast = test system: MDA-MB-231 breast
MDA-MB-435 = test system: MDA-MB-435
MOLT-4 leukemia = test system: MOLT-4 leukemia
NCI-H226 lung = test system: NCI-H226 lung
NCI-H23 lung = test system: NCI-H23 lung
NCI-H460 lung = test system: NCI-H460 lung
NCI-H522 lung = test system: NCI-H522 lung
NCI/ADR-RES ovarian = test system: NCI/ADR-RES ovarian
OVCAR-3 ovarian = test system: OVCAR-3 ovarian
OVCAR-4 ovarian = test system: OVCAR-4 ovarian
OVCAR-5 ovarian = test system: OVCAR-5 ovarian
OVCAR-8 ovarian = test system: OVCAR-8 ovarian
PC-3 prostate = test system: PC-3 prostate
RPMI-8226 leukemia = test system: RPMI-8226 leukemia
RXF 393 renal = test system: RXF 393 renal
SF-268 CNS = test system: SF-268 CNS
SF-295 CNS = test system: SF-295 CNS
SF-539 CNS = test system: SF-539 CNS
SK-MEL-2 melanoma = test system: SK-MEL-2 melanoma
SK-MEL-28 melanoma = test system: SK-MEL-28 melanoma
SK-MEL-5 melanoma = test system: SK-MEL-5 melanoma
SK-OV-3 ovarian = test system: SK-OV-3 ovarian
SN12C renal = test system: SN12C renal
SNB-19 CNS = test system: SNB-19 CNS
SNB-75 CNS = test system: SNB-75 CNS
SW-620 colon = test system: SW-620 colon
T-47D breast = test system: T-47D breast
TK-10 renal = test system: TK-10 renal
U251 CNS = test system: U251 CNS
UACC-257 melanoma = test system: UACC-257 melanoma
UACC-62 melanoma = test system: UACC-62 melanoma
UO-31 renal = test system: UO-31 renal

With `CCN(Cc1ccccc1F)c1ccc(CO)c(Cl)c1` the GI50 (786-0 renal) was 15.9 µM, the TGI (786-0 renal) was 41 µM and the GI50 (A498 renal) was less than 0.0179 µM. It also gave a TGI (A498 renal) of 0.0594 µM, a GI50 (A549 NSCLC) of 1.03 µM and a TGI (A549 NSCLC) of 21.8 µM. The GI50 (ACHN renal) was 19.2 µM, the TGI (ACHN renal) was greater than 53.4 µM and the GI50 (BT-549 breast) was 15.8 µM. The TGI (BT-549 breast) was 30.6 µM, the GI50 (CAKI-1 renal) was 3.81 µM and the TGI (CAKI-1 renal) was 39.9 µM. For the same molecule, the GI50 (CCRF-CEM leukemia) was 24.2 µM, the TGI (CCRF-CEM leukemia) was greater than 75.4 µM and the GI50 (COLO 205 colon) was 2.45 µM. It also gave a TGI (COLO 205 colon) of 7.86 µM, a GI50 (DU-145 prostate) of 18.4 µM and a TGI (DU-145 prostate) greater than 60 µM. For the same molecule, the GI50 (HCC-2998 colon) was 8.41 µM, the TGI (HCC-2998 colon) was 25 µM and the GI50 (HCT-116 colon) was less than 0.0273 µM. It also gave a TGI (HCT-116 colon) of 11.3 µM, a GI50 (HCT-15 colon) of 11.5 µM and a TGI (HCT-15 colon) of 47.2 µM. It also gave a GI50 (HL-60(TB) leukemia) of 17.7 µM, a TGI (HL-60(TB) leukemia) of 47.3 µM and a GI50 (HOP-62 NSCLC) of 1.34 µM. The TGI (HOP-62 NSCLC) was 17.8 µM, the GI50 (HOP-92 NSCLC) was 0.301 µM and the TGI (HOP-92 NSCLC) was 8.72 µM. The GI50 (HS 578T breast) was 26.5 µM, the TGI (HS 578T breast) was greater than 66.4 µM and the GI50 (HT29 colon) was 3.38 µM. It also gave a TGI (HT29 colon) of 21.4 µM, a GI50 (IGROV1 ovarian) of less than 0.0231 µM and a GI50 (K-562 leukemia) of 0.535 µM. It also gave a TGI (K-562 leukemia) greater than 39 µM, a GI50 (KM12 colon) of 18.5 µM and a TGI (KM12 colon) of 47.7 µM. It also gave a GI50 (LOX IMVI melanoma) of 20.3 µM, a TGI (LOX IMVI melanoma) of 44.2 µM and a GI50 (M14 melanoma) of 19.9 µM. It also gave a TGI (M14 melanoma) of 41.7 µM, a GI50 (MALME-3M melanoma) of 17.7 µM and a TGI (MALME-3M melanoma) of 39.5 µM. For the same molecule, the GI50 (MCF7 breast) was 0.0892 µM, the TGI (MCF7 breast) was 12.7 µM and the GI50 (MDA-MB-231 breast) was 16.3 µM. The TGI (MDA-MB-231 breast) was 41.7 µM, the GI50 (MDA-MB-435) was 17.2 µM and the TGI (MDA-MB-435) was 40.2 µM. It also gave a GI50 (MOLT-4 leukemia) of 22.5 µM, a TGI (MOLT-4 leukemia) of 56.2 µM and a GI50 (NCI-H226 lung) of 0.0137 µM. The TGI (NCI-H226 lung) was 0.0511 µM, the GI50 (NCI-H23 lung) was 14.6 µM and the TGI (NCI-H23 lung) was 57.1 µM. For the same molecule, the GI50 (NCI-H460 lung) was 0.0604 µM, the TGI (NCI-H460 lung) was 11 µM and the GI50 (NCI-H522 lung) was 16.3 µM. For the same molecule, the TGI (NCI-H522 lung) was 39.1 µM, the GI50 (NCI/ADR-RES ovarian) was 15.9 µM and the TGI (NCI/ADR-RES ovarian) was 52.8 µM. For the same molecule, the GI50 (OVCAR-3 ovarian) was 0.176 µM, the TGI (OVCAR-3 ovarian) was 1.5 µM and the GI50 (OVCAR-4 ovarian) was 0.0793 µM. The TGI (OVCAR-4 ovarian) was 5.88 µM, the GI50 (OVCAR-5 ovarian) was 0.0428 µM and the TGI (OVCAR-5 ovarian) was 0.234 µM. For the same molecule, the GI50 (OVCAR-8 ovarian) was 13.2 µM, the TGI (OVCAR-8 ovarian) was greater than 57 µM and the GI50 (PC-3 prostate) was 18.9 µM. It also gave a TGI (PC-3 prostate) greater than 62.8 µM, a GI50 (RPMI-8226 leukemia) of 0.796 µM and a TGI (RPMI-8226 leukemia) of 22.8 µM. It also gave a GI50 (RXF 393 renal) of 4.35 µM, a TGI (RXF 393 renal) of 24.8 µM and a GI50 (SF-268 CNS) of 26.6 µM. It also gave a TGI (SF-268 CNS) greater than 60.7 µM, a GI50 (SF-295 CNS) of 0.7 µM and a TGI (SF-295 CNS) of 17.2 µM. The GI50 (SF-539 CNS) was 16.8 µM, the TGI (SF-539 CNS) was 34.5 µM and the GI50 (SK-MEL-2 melanoma) was 1.81 µM. The TGI (SK-MEL-2 melanoma) was 19.9 µM, the GI50 (SK-MEL-28 melanoma) was 13.5 µM and the TGI (SK-MEL-28 melanoma) was 31.3 µM. It also gave a GI50 (SK-MEL-5 melanoma) of 2.66 µM, a TGI (SK-MEL-5 melanoma) of 21.1 µM and a GI50 (SK-OV-3 ovarian) of 4.28 µM. For the same molecule, the TGI (SK-OV-3 ovarian) was 17.9 µM, the GI50 (SN12C renal) was 13.5 µM and the TGI (SN12C renal) was 38.6 µM. The GI50 (SNB-19 CNS) was 28.4 µM, the TGI (SNB-19 CNS) was greater than 94.6 µM and the GI50 (SNB-75 CNS) was 11 µM. For the same molecule, the TGI (SNB-75 CNS) was 46.4 µM, the GI50 (SW-620 colon) was 0.49 µM and the TGI (SW-620 colon) was greater than 46.5 µM. The GI50 (T-47D breast) was less than 0.0213 µM, the TGI (T-47D breast) was 0.177 µM and the GI50 (TK-10 renal) was less than 0.0201 µM. It also gave a TGI (TK-10 renal) of 0.0651 µM, a GI50 (U251 CNS) of 0.256 µM and a TGI (U251 CNS) of 24.2 µM. For the same molecule, the GI50 (UACC-257 melanoma) was less than 0.0346 µM, the TGI (UACC-257 melanoma) was 0.134 µM and the GI50 (UACC-62 melanoma) was 0.0409 µM. It also gave a TGI (UACC-62 melanoma) of 0.992 µM, a GI50 (UO-31 renal) of 13.2 µM and a TGI (UO-31 renal) of 46.4 µM.
